Experimental data: patent US12054487B2, “Muscarinic acetylcholine M1 receptor antagonists” (Contineum Therapeutics, Inc., priority 2018, dated 2024)

How the values were obtained:
Assay type in all cases: cell-based
[1] = biological target: T1, human M1 receptor (Homo sapiens, UniProt P11229); test: In vitro functional assay of muscarinic acetylcholine receptor activity (aequorin calcium flux, antagonist mode vs EC80 acetylcholine), M1; conditions: CHO-K1 cells stably expressing human M1 receptor with Aequorin; decrease in EC80 acetylcholine response
T1 construct: host or cells: CHO-K1
T1 sequence (P11229 1-460): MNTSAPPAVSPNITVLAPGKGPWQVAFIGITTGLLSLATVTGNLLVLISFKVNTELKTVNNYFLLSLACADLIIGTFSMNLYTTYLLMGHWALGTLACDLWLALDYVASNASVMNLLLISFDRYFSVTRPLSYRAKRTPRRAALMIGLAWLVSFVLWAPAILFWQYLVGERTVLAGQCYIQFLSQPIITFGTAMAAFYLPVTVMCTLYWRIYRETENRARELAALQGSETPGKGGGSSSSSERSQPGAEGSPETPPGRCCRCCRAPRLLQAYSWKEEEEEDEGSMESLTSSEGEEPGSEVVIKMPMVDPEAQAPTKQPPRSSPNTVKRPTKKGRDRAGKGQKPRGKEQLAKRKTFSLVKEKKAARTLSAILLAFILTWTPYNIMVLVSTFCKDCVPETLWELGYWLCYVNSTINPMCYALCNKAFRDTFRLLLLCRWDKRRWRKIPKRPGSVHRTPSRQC
Procedure: (§1) CHO-K1 cells stably expressing human M1 receptor with Aequorin (Perkin Elmer) were grown in F12 media, 10% FBS with 0.4 mg/mL geneticin and […]. Cells were grown to confluence and frozen down to be assayed at a later date. On the day of the experiment cells were thawed in a 37° C. water bath, resuspended in DMEM/HAM's F12 with HEPES (Invitrogen)+0.1% protease-free BSA (assay buffer), and spun down to remove freezing media. After centrifugation, supernatant was removed and 12 mL of assay buffer was added. Coelenterazine h (Promega) was added to the cells at a final concentration of 5 uM and incubated for 4 hours at room temperature in the dark. Compound master plate-96 deep well (Corning) were formatted in a 8-point DRC in assay buffer with 0.2% DMSO at a starting concentration of 60 uM (2×). After 4 hours of incubation, cells were plated at a concentration of 5×10^5 cells/well in 96 well white-walled, tissue culture-treated, clear-bottom plates (VWR). Compounds were added to the daughter plate, and cells plus compound were incubated at room temperature for 30 minutes in the dark.
(§2) Calcium flux was measured using the FlexStation 3 (Molecular Devices). To measure the antagonist dose-response, the EC80 of Acetylcholine was injected to the daughter plate using the automated compound transfer function of the Flex Station, and the increase in luminescence was measured over time. Antagonist activity was analyzed as a concentration dependent decrease in the EC80 acetylcholine response. Dose response curves were generated using Prism (GraphPad Software). The IC50 of the compounds was calculated from the dose response curve.

[2] = biological target: T2, M2 (Homo sapiens, UniProt P08172); test: In vitro functional assay of muscarinic acetylcholine receptor activity, M2; conditions: antagonist activity; M2 method not separately described
T2 sequence (P08172 1-466): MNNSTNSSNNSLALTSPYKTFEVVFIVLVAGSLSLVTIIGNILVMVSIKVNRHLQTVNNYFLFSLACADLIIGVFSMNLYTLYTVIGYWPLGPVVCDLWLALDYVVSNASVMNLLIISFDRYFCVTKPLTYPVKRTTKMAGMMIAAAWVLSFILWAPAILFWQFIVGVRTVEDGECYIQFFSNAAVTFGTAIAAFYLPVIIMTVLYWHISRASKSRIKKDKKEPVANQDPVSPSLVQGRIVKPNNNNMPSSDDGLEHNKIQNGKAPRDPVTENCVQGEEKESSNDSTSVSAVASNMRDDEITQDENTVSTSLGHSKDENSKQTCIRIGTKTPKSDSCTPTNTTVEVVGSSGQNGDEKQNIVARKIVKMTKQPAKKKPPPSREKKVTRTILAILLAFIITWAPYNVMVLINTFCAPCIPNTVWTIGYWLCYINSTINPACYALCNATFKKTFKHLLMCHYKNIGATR
Procedure: [The procedure below names another target; the source lists this target under the same test.] as §1, §2

[3] = biological target: M3 (Homo sapiens, UniProt P20309); test: In vitro functional assay of muscarinic acetylcholine receptor activity, M3; conditions: antagonist activity; M3 method not separately described
Procedure: [The procedure below names another target; the source lists this target under the same test.] as §1, §2

Sequence of M3 (P20309 whole entry): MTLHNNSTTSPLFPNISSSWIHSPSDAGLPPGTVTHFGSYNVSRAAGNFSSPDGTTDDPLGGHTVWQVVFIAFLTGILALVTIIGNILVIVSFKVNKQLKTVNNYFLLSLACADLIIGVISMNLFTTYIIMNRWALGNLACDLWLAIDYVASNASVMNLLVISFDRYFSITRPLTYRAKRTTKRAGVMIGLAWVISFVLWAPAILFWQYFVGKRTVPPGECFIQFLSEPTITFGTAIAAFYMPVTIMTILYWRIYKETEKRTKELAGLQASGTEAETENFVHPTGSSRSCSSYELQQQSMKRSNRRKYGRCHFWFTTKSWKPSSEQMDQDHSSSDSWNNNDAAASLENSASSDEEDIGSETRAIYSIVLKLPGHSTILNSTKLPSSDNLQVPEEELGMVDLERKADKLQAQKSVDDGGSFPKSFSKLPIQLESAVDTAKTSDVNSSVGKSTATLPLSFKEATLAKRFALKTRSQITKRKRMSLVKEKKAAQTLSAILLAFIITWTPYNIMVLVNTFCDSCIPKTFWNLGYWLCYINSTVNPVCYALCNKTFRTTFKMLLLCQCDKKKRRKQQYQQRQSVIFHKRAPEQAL

An IC50 [1] of 1 to 10 µM, an IC50 [2] of 1 to 10 µM and an IC50 [3] of 1 to 10 µM were found for Cc1ncc(N2CCN3C(=O)C(CCCc4cccc5ncnn45)C[C@H]3C2)cc1F (mixture of isomers) [Example 43, (7S,8aS)-7-(3-([1,2,4]triazolo[1,5-a]pyridin-5-yl)propyl)-2-(5-fluoro-6-methylpyridin-3-yl)hexahydropyrrolo[1,2-a]pyrazin-6(2H)-one] in this work.
In the case of Cc1ccc(N2CCN3C(=O)[C@@H](CCCc4cccc5ncnn45)C[C@H]3C2)nn1 [Example 48, (7S,8aS)-7-(3-([1,2,4]triazolo[1,5-a]pyridin-5-yl)propyl)-2-(6-methylpyridazin-3-yl)hexahydropyrrolo[1,2-a]pyrazin-6(2H)-one], the IC50 [1] is reported as < 0.1 µM, the IC50 [2] is reported as 1 to 10 µM and the IC50 [3] is reported as 1 to 10 µM.
For N#Cc1ccc(N2CCN3C(=O)[C@@H](CCCc4cccc5c4CCC5)C[C@H]3C2)nc1 [Example 18, 6-((7S,8aS)-7-(3-(2,3-dihydro-1H-inden-4-yl)propyl)-6-oxohexahydropyrrolo[1,2-a]pyrazin-2(1H)-yl)nicotinonitrile], the IC50 [1] was 1 to 10 µM, the IC50 [2] was 1 to 10 µM and the IC50 [3] was > 10 µM.
For O=C1C(CCCc2cccc3ncnn23)C[C@H]2CN(c3ccc(C(F)F)cn3)CCN12 (mixture of isomers) [Example 46, (8aS)-7-(3-([1,2,4]triazolo[1,5-a]pyridin-5-yl)propyl)-2-(5-(difluoromethyl)pyridin-2-yl)hexahydropyrrolo[1,2-a]pyrazin-6(2H)-one], the IC50 [1] was < 0.1 µM, the IC50 [2] was 1 to 10 µM and the IC50 [3] was 1 to 10 µM.
In the case of Cc1cnc(N2CCN3C(=O)[C@@H](CCCc4cccn5ncnc45)C[C@H]3C2)nc1 [Example 65, (7S,8aS)-7-(3-([1,2,4]triazolo[1,5-a]pyridin-8-yl)propyl)-2-(5-methylpyrimidin-2-yl)hexahydropyrrolo[1,2-a]pyrazin-6(2H)-one], the IC50 [1] is reported as 0.1 to 1 µM, the IC50 [2] is reported as 1 to 10 µM and the IC50 [3] is reported as > 10 µM.
With N#Cc1ccc(N2CCN3C(=O)[C@@H](CNCc4cccc5ncnn45)C[C@H]3C2)nc1 [Example 5, 6-((7R,8aS)-7-((([1,2,4]triazolo[1,5-a]pyridin-5-ylmethyl)amino)methyl)-6-oxohexahydropyrrolo[1,2-a]pyrazin-2(1H)-yl)nicotinonitrile] the IC50 [1] was 0.1 to 1 µM, the IC50 [2] was 1 to 10 µM and the IC50 [3] was > 10 µM.
For Nc1cc(N2CCN3C(=O)[C@@H](CCCc4cccc5ncsc45)C[C@H]3C2)ccn1 [Example 30, (7S,8aS)-2-(2-aminopyridin-4-yl)-7-(3-(benzo[d]thiazol-7-yl)propyl)hexahydropyrrolo[1,2-a]pyrazin-6(2H)-one], the IC50 [1] was < 0.1 µM, the IC50 [2] was 1 to 10 µM and the IC50 [3] was 1 to 10 µM.
In the case of O=C1[C@@H](CCCc2cccc3ncnn23)C[C@H]2CN(c3ccc(CO)cn3)CCN12 [Example 53, (7S,8aS)-7-(3-([1,2,4]triazolo[1,5-a]pyridin-5-yl)propyl)-2-(5-(hydroxymethyl)pyridin-2-yl)hexahydropyrrolo[1,2-a]pyrazin-6(2H)-one], the IC50 [1] is reported as < 0.1 µM, the IC50 [2] is reported as 1 to 10 µM and the IC50 [3] is reported as > 10 µM.
An IC50 [1] of 0.1 to 1 µM, an IC50 [2] of 1 to 10 µM and an IC50 [3] of 1 to 10 µM were found for N#Cc1ccc(N2CCN3C(=O)[C@@H](CCCc4ccc5c(c4)CCO5)C[C@H]3C2)nc1 [Example 20, 6-((7S,8aS)-7-(3-(2,3-dihydrobenzofuran-5-yl)propyl)-6-oxohexahydropyrrolo[1,2-a]pyrazin-2(1H)-yl)nicotinonitrile] in this work.
With O=C1C(CCCc2cccc3ncsc23)CC2CN(c3ccncc3F)CCN12 (racemic) [Example 6, 7-(3-(benzo[d]thiazol-7-yl)propyl)-2-(3-fluoropyridin-4-yl)hexahydropyrrolo[1,2-a]pyrazin-6(2H)-one] the IC50 [1] was 0.1 to 1 µM, the IC50 [2] was 1 to 10 µM and the IC50 [3] was > 10 µM.
For O=C1[C@@H](CCCc2cccc3ncnn23)C[C@H]2CN(c3ccc(Cl)cn3)CCN12 [Example 34, (7S,8aS)-7-(3-([1,2,4]triazolo[1,5-a]pyridin-5-yl)propyl)-2-(5-chloropyridin-2-yl)hexahydropyrrolo[1,2-a]pyrazin-6(2H)-one], the IC50 [1] was < 0.1 µM, the IC50 [2] was 1 to 10 µM and the IC50 [3] was 1 to 10 µM.
O=C1[C@@H](CCCc2cccc3ncnn23)C[C@H]2CN(c3cccc(C(F)(F)F)n3)CCN12 [Example 31, (7S,8aS)-7-(3-([1,2,4]triazolo[1,5-a]pyridin-5-yl)propyl)-2-(6-(trifluoromethyl)pyridin-2-yl)hexahydropyrrolo[1,2-a]pyrazin-6(2H)-one] was tested, and the IC50 [1] was 1 to 10 µM, the IC50 [2] was > 10 µM and the IC50 [3] was > 10 µM.
O=C1[C@@H](CCCc2cccn3ncnc23)C[C@H]2CN(c3ncc(F)cn3)CCN12 [Example 63, (7S,8aS)-7-(3-([1,2,4]triazolo[1,5-a]pyridin-8-yl)propyl)-2-(5-fluoropyrimidin-2-yl)hexahydropyrrolo[1,2-a]pyrazin-6(2H)-one] was tested, and the IC50 [1] was < 0.1 µM, the IC50 [2] was > 10 µM and the IC50 [3] was 1 to 10 µM.
For O=C1[C@@H](CCCc2cccc3ncsc23)C[C@H]2CN(c3ccccn3)CCN12 [Example 27, (7S,8aS)-7-(3-(benzo[d]thiazol-7-yl)propyl)-2-(pyridin-2-yl)hexahydropyrrolo[1,2-a]pyrazin-6(2H)-one], the IC50 [1] was 0.1 to 1 µM, the IC50 [2] was > 10 µM and the IC50 [3] was 1 to 10 µM.
In the case of O=C1[C@@H](CCCc2cccn3ncnc23)C[C@H]2CN(c3ncccn3)CCN12 [Example 66, (7S,8aS)-7-(3-([1,2,4]triazolo[1,5-a]pyridin-8-yl)propyl)-2-(pyrimidin-2-yl)hexahydropyrrolo[1,2-a]pyrazin-6(2H)-one], the IC50 [1] is reported as 0.1 to 1 µM, the IC50 [2] is reported as > 10 µM and the IC50 [3] is reported as > 10 µM.
For N#Cc1ccc(N2CCN3C(=O)[C@@H](CCCc4cccc5ncoc45)C[C@H]3C2)nc1 [Example 22, 6-((7S,8aS)-7-(3-(benzo[d]oxazol-7-yl)propyl)-6-oxohexahydropyrrolo[1,2-a]pyrazin-2(1H)-yl)nicotinonitrile], the IC50 [1] was < 0.1 µM, the IC50 [2] was 0.1 to 1 µM and the IC50 [3] was 1 to 10 µM.
With N#Cc1ccc(N2CCN3C(=O)[C@@H](CCCc4cccn5ncnc45)C[C@H]3C2)cn1 [Example 67, 5-((7S,8aS)-7-(3-([1,2,4]triazolo[1,5-a]pyridin-8-yl)propyl)-6-oxohexahydropyrrolo[1,2-a]pyrazin-2(1H)-yl)picolinonitrile] the IC50 [1] was < 0.1 µM, the IC50 [2] was 0.1 to 1 µM and the IC50 [3] was < 0.1 µM.
For N#Cc1ccc(N2CCN3C(=O)[C@@H](CCCc4cccn5ncnc45)C[C@H]3C2)nc1 [Example 68, 6-((7S,8aS)-7-(3-([1,2,4]triazolo[1,5-a]pyridin-8-yl)propyl)-6-oxohexahydropyrrolo[1,2-a]pyrazin-2(1H)-yl)nicotinonitrile], the IC50 [1] was < 0.1 µM, the IC50 [2] was 0.1 to 1 µM and the IC50 [3] was < 0.1 µM.
An IC50 [1] of 0.1 to 1 µM, an IC50 [2] of 1 to 10 µM and an IC50 [3] of 1 to 10 µM were found for O=C1[C@@H](CCCc2cccc3ncsc23)C[C@H]2CN(c3ccnc(Cl)c3)CCN12 [Example 12] in this work.
N#Cc1ccc(N2CCN3C(=O)[C@@H](CCCc4cccc5ncccc45)C[C@H]3C2)nc1 [Example 59, 6-((7S,8aS)-6-oxo-7-(3-(quinolin-5-yl)propyl)hexahydropyrrolo[1,2-a]pyrazin-2(1H)-yl)nicotinonitrile] was tested, and the IC50 [1] was < 0.1 µM, the IC50 [2] was 0.1 to 1 µM and the IC50 [3] was 1 to 10 µM.
For COc1ccc(N2CCN3C(=O)[C@@H](CCCc4cccc5ncnn45)C[C@H]3C2)cn1 [Example 38, (7S,8aS)-7-(3-([1,2,4]triazolo[1,5-a]pyridin-5-yl)propyl)-2-(6-methoxypyridin-3-yl)hexahydropyrrolo[1,2-a]pyrazin-6(2H)-one], the IC50 [1] was 1 to 10 µM, the IC50 [2] was > 10 µM and the IC50 [3] was > 10 µM.
